Experimental data taken from the supplement of paper PMC10307832.

compound: Cn1cnc2c(F)c(Nc3ccc(Br)cc3Cl)c(C(=O)NOCCO)cc21 [Selumetinib] + CC(C)C[C@H](NC(=O)[C@H](Cc1ccccc1)NC(=O)c1cnccn1)B(O)O [Bortezomib] (partner 0.002 µM); experiment: relative viability (nuclei count vs DMSO), 5 days (fraction); higher = more cells survive; details: first compound 0.6325 µM
In short: (§1)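 Dosing by pin tool came one day after lung cancer cell lines were seeded in 1536-well plates, using either one drug or a fixed anchor-drug dose plus five library-drug doses (not always all listed) in √10 steps. After 5 days, nuclei were counted on 4× images. Relative viability is treated-well nuclei count divided by vehicle-well nuclei count, and values are medians of duplicate plates.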

In order of rising relative viability:
1. NCI-H1975  0.221
2. NCI-H1650  0.222
3. NCI-H2087  0.351
4. NCI-H2009  0.362
5. NCI-H2347  0.45
6. NCI-H441  0.506
7. NCI-H661  0.575
8. NCI-H1915  0.617
9. SK-LU-1  0.715
10. EKVX  0.748
11. HCC-366  0.761
12. CAL-12T  0.772
13. NCI-H1651  0.818
14. SW 1573  0.932
15. RERF-LC-KJ  0.944
16. H3255  0.962
17. LCLC-103H  0.978

compound: Cn1cnc2c(F)c(Nc3ccc(Br)cc3Cl)c(C(=O)NOCCO)cc21 [Selumetinib] + Cc1nc(Nc2ncc(C(=O)Nc3c(C)cccc3Cl)s2)cc(N2CCN(CCO)CC2)n1 [Dasatinib] (partner 0.075 µM); experiment: as above; details: first compound 0.02 µM
In short: as §1

In order of falling relative viability:
1. NCI-H661  0.902
2. RERF-LC-KJ  0.883
3. A-427  0.785
4. NCI-H1355  0.717
5. NCI-H3122  0.712
6. NCI-H596  0.625
7. NCI-H441  0.602
8. 201T  0.589
9. SW 1573  0.589
10. HOP-62  0.583
11. LU99A  0.58
12. NCI-H1993  0.545
13. NCI-H2087  0.535
14. LCLC-103H  0.524
15. HCC-366  0.501
16. EKVX  0.469
17. H3255  0.41
18. NCI-H1651  0.387
19. CAL-12T  0.363
20. NCI-H1437  0.334
21. NCI-H1975  0.333
22. NCI-H1650  0.333
23. NCI-H460  0.332
24. NCI-H1915  0.302
25. HCC-15  0.296
26. BEN  0.295
27. NCI-H838  0.275
28. NCI-H2347  0.262
29. NCI-H520  0.261
30. NCI-H2085  0.25
31. HCC-827  0.24
32. NCI-H2009  0.233
33. NCI-H2405  0.216
34. SK-LU-1  0.177

same assay, conditions: first compound 0.06325 µM

In order of falling relative viability:
1. NCI-H661  0.821
2. RERF-LC-KJ  0.792
3. A-427  0.729
4. NCI-H3122  0.702
5. LU99A  0.643
6. NCI-H1355  0.631
7. 201T  0.571
8. EKVX  0.567
9. HCC-366  0.566
10. NCI-H596  0.546
11. NCI-H1993  0.534
12. HOP-62  0.526
13. LCLC-103H  0.505
14. NCI-H1651  0.378
15. NCI-H441  0.363
16. SW 1573  0.362
17. H3255  0.358
18. BEN  0.341
19. HCC-827  0.331
20. NCI-H1975  0.299
21. NCI-H1650  0.298
22. NCI-H2087  0.293
23. NCI-H520  0.29
24. NCI-H1915  0.281
25. NCI-H460  0.272
26. CAL-12T  0.258
27. NCI-H838  0.254
28. HCC-15  0.231
29. NCI-H1437  0.231
30. NCI-H2085  0.23
31. NCI-H2405  0.22
32. SK-LU-1  0.208
33. NCI-H2347  0.189
34. NCI-H2009  0.183

same assay, conditions: first compound 0.2 µM

In order of falling relative viability:
1. NCI-H661  0.805
2. RERF-LC-KJ  0.714
3. NCI-H3122  0.684
4. 201T  0.585
5. NCI-H1993  0.572
6. LCLC-103H  0.568
7. NCI-H596  0.565
8. A-427  0.555
9. NCI-H1355  0.543
10. SW 1573  0.534
11. LU99A  0.509
12. HCC-366  0.456
13. NCI-H441  0.41
14. NCI-H1651  0.402
15. HOP-62  0.387
16. EKVX  0.371
17. BEN  0.368
18. H3255  0.329
19. NCI-H1650  0.323
20. NCI-H838  0.304
21. CAL-12T  0.285
22. NCI-H520  0.278
23. NCI-H2087  0.273
24. NCI-H1975  0.272
25. HCC-827  0.26
26. NCI-H1915  0.225
27. NCI-H2085  0.204
28. NCI-H1437  0.197
29. HCC-15  0.19
30. NCI-H2347  0.184
31. SK-LU-1  0.181
32. NCI-H2405  0.17
33. NCI-H2009  0.163
34. NCI-H460  0.155

same assay, conditions: first compound 0.6325 µM

In order of rising relative viability:
1. NCI-H460  0.128
2. HCC-15  0.146
3. NCI-H1915  0.174
4. NCI-H2405  0.187
5. NCI-H2347  0.191
6. NCI-H2085  0.215
7. NCI-H1437  0.215
8. HOP-62  0.249
9. CAL-12T  0.258
10. NCI-H838  0.267
11. NCI-H1975  0.269
12. HCC-827  0.294
13. NCI-H520  0.306
14. NCI-H441  0.307
15. NCI-H1650  0.337
16. H3255  0.344
17. BEN  0.371
18. A-427  0.407
19. NCI-H1355  0.413
20. NCI-H596  0.483
21. NCI-H3122  0.534
22. 201T  0.555
23. LU99A  0.6
24. NCI-H1993  0.609
25. NCI-H661  0.731
